The values that follow come from patent US20160199338A1, “COMPOSITIONS CONTAINING MONOACETYLDIACYLGLYCEROL COMPOUND AS AN ACTIVE INGREDIENT FOR PREVENTING OR TREATING RHEUMATOID ARTHRITIS” (ENZYCHEM LIFESCIENCES CORPORATION, priority 2013, published 2016).

For series [1] the following is noted: GLP toxicity test; cited from earlier work.
Series [2] relates to arthritis induced by bovine type II collagen in male DBA/1J mouse. Put plainly: Collagen-induced arthritis animal model. The class given is in vivo. The settings on record: for histopathological arthritis score of knee joint: knee joint of both hind legs, vs negative control (FIG. 6); for histopathological arthritis score of knee joint / concentration of IL-6 in serum: EC-18 125, 500, 2,000 mg/kg oral, Remicade 20 mg/kg intraperitoneal, methotrexate 2.5 mg/kg oral; for concentration of IL-6 in serum: serum collected at day of tissue excision, once a day for five weeks, vs negative control (FIG. 4). As for the experimental part:
For arthritis animal model experiment, arthritis was induced in male DBA/1J mouse by administering bovine type II collagen to the mouse. Efficacy of EC-18 for treating (or improving) arthritis was evaluated by repeatedly administering EC-18 to the mouse orally. For comparison, Remicade (positive control 1) was administered intraperitoneally and methotrexate (positive control 2) was administered orally. The experiment included seven groups: normal group (G1), negative control (G2), 125 mg/kg, 500 mg/kg and 2,000 mg/kg of EC-18 (EC-18 treatment groups, G3, G4, G5), 20 mg/kg of Remicade (Positive control 1, G6) and 2.5 mg/kg of Methotrexate (Positive control 2, G7). Each group consists of 10 mice. Olive oil was administered to normal group (G1) and negative control group (G2) as an excipient. In all groups, administration was made once a day for five weeks (a total of 35 administrations). Remicade (G6) was administered intraperitoneally, whereas EC-18, methotrexate and olive oil were administered orally in force. For all groups except normal Group (G1), arthritis was induced by immunizing animals twice with bovine type II collagen and complete Freund's adjuvant or incomplete Freund's adjuvant emulsion. During the observation period, common arthritis symptoms were observed once a day, weigh measured once a week, arthritic score evaluation made with the naked eye twice a week, foot thickness measured twice a week.

As for `CCCCC/C=C\C/C=C\CCCCCCCC(=O)OC(COC(C)=O)COC(=O)CCCCCCCCCCCCCCC` (stereo not drawn) [EC-18, 1-palmitoyl-2-linoleoyl-3-acetylglycerol], the toxicity entry in series [1] was “no toxicity”.

In the case of `CN(Cc1cnc2nc(N)nc(N)c2n1)c1ccc(C(=O)N[C@@H](CCC(=O)O)C(=O)O)cc1` [Methothrexate, methotrexate], in series [2], the “histopathological arthritis score of knee joint” value is given as “reduced” and the “concentration of IL-6 in serum” value was “reduced”.

With “Remicade: positive control 1, administered intraperitoneally at 20 mg/kg”, in series [2] (EC-18 500 mg/kg (G4), Remicade 20 mg/kg (G6), vs negative control (FIGS. 7 and 8)), the “crushing of cartilage and increase of Pannus (stained arthritic tissue)” value was “reduced”. Besides, in series [2], the “histopathological arthritis score of knee joint” value is “reduced” and the “concentration of IL-6 in serum” value is reported as “reduced”.
